≈ marks a conversion by molar mass, not a printed value.
Test: Aqueous solubility of the compound in Britton-Robinson buffer after 48 hrs at pH 6.5 by UV-vis spectrophotometry based shake flask method
Format: physicochemical

solubility thermodynamic at 48 h: 288 µg/mL (≈ 755 µM)
SMILES: O=C(O)Cn1ccc2ccc(-c3cn(-c4ccc(O)c(F)c4)nn3)nc2c1=O

— ChEMBL document CHEMBL4130596, “Adding a Hydrogen Bond May Not Help: Naphthyridinone vs Quinoline Inhibitors of Macrophage Migration Inhibitory Factor” (ACS Med Chem Lett, 2017)
